US20090062370A1, “Method for increasing the speed of recovery and/or the speed of wound healing of injured animals” (priority 2005, published 2009)

What was measured:
wounded animals = experiment: Feeding of wounded animals with supplemented feed (general description, daily intake titration); type: in vivo
Source text: Phytohormones and beta-glucans appeared to work in a wide range of concentrations for improving the speed of wound healing in animals. The optimal concentrations may vary between different species, however, the skilled person will know how to obtain an optimal concentration for a given species, for instance by titration of the desired compound into the animal feed and testing when this would have the optimal effect. The following may serve as guidance in this process.
A skilled person will appreciate that the amount of free IAA in the ready to use feed has to be adjusted in order to supply the animal with an effective amount of free IAA. In order to adjust the free IAA concentration in the feed so that a certain daily intake of free IAA is achieved, an estimate has to be made of the feed intake of an animal or animal group. A skilled person is aware of the feed intake of a (particular kind or group of) animal(s), typically, the feed intake per day is between 0.5 and 10% of the body weight of the animal, with occasional exceptions as high as 20%. Elderly animals tend to eat less and are considered to have a feed intake per day between 0.1 and 5%, typically of 1% of their body mass.

fibroblasts = conditions: cited from earlier work
humans = conditions: single doses of 0.1 g/kg body weight; cited from earlier work
[1] = test system: koi fish suffering from wounds as a result of parasites; experiment: Wound healing of koi fish in ponds fed fish feed according to the invention; type: in vivo; conditions: scale 1 (very slow recovery) to 5 (very fast recovery)
Source text: Four ponds of 40 cubic meters each, each containing 50 koi fish with an approximate total body weight of 50 kg were used to establish the effect of the fish feed according to the invention on wound healing. One pond (pond 1) served as a control were the fish were fed with control feed, the fish in the other ponds received a feed according to the invention as prepared in examples 6 to 8 above.
The fish in control pond were fed with 10 gram Cyprico White 3 mm floater feed per day, whereas the fish in the other ponds were fed with 10 gram of the feed as described in Example 2, 3 and 4 (Table 2). About 10% of all fish suffered from wounds as a result of parasites.
The veterinarian filled in a questionnaire on the recovery process of the fish, Table 3. Criterion was the speed of disappearance of the wounds. This criterion was scored on a scale ranging from 1 to 5 wherein 1 was very slow recovery and 5 very fast recovery. This criterion was scored 1, 2, 4, 7 and 21 days of feeding.

surgical wound = conditions: oral supplementation of 50 mg of zinc three times per day, as zinc sulfate; cited from earlier work

Molecule: 1.3 and 1.6 beta glucans
- optimal daily intake (optimal results / optimum between cost and benefit) (wounded animals; in feed): around 5 mg/kglw/day

Molecule: O=C(O)Cc1c[nH]c2ccccc12 [free IAA, indole-3-acetic acid]
- effect on the migration of fibroblasts in vitro (fibroblasts): had an effect
- toxicity of single doses (humans): non-toxic
- Wound healing score ([1]; 1 day of feeding): 1
- Wound healing score ([1]; 2 days of feeding): 1
- Wound healing score ([1]; 4 days of feeding): 2
- Wound healing score ([1]; 7 days of feeding): 3
- Wound healing score ([1]; 21 days of feeding): 4
- effect on recovery of wounded animals (wounded animals; feed with 0.4 mg/kglw/day): very effective

Molecule: C=C1C[C@]23C[C@@]1(O)CC[C@H]2[C@@]12C=C[C@H](O)[C@@](C)(C(=O)O1)[C@H]2[C@@H]3C(=O)O [gibberellin, gibberellic acid]
- effect on the migration of fibroblasts in vitro (fibroblasts): not

Molecule: O=S(=O)([O-])[O-].[Zn+2] [zinc, zinc sulfate]
- reduction of healing time of a surgical wound (surgical wound): 43%
